Measurements published in ChEMBL document CHEMBL1150733, “(+)-Curcuphenol and (+)-Curcudiol, Sesquiterpene Phenols from Shallow and Deep Water Collections of the Marine Sponge Didiscus flavus” (J Nat Prod, 1987).
Values after ≈ are worked out from the molar mass of the structure shown.

Experiments:
[1] = system: A549; test: Cytotoxicity against human A549 cells; format: functional
[2] = system: HCT-8; test: Cytotoxicity against human HCT8 cells; format: functional
[3] = system: P388; test: Cytotoxicity against mouse P388 cells; format: functional, cell-based
[4] = system: Candida albicans; test: Antifungal activity against Candida albicans; format: functional
[5] = Cytotoxicity against human MDA-MB cells; format: functional

MIC [4]	Compound	MIC [1]	MIC [2]	IC50 [3]	MIC [5]
8 µg/mL (≈ 36.6 µM)	CC(C)=CCC[C@H](C)c1ccc(C)cc1O	10 µg/mL (≈ 45.8 µM)	0.1 µg/mL (≈ 0.458 µM)	7 µg/mL (≈ 32.1 µM)	0.1 µg/mL (≈ 0.458 µM)
250 µg/mL (≈ 1060 µM)	Cc1ccc([C@@H](C)CCCC(C)(C)O)c(O)c1	–	–	–	–
